In patent publication US20210261642A1, “SOLUBILITY OF GLP-1 PEPTIDE” (Novo Nordisk A/S, priority 2017, published 2021):

Test: Assay (I): Determination of Solubility (96-well plate, pH 3.0-11.0, organic solvent 0-70% w/w, UV absorption at 280 nm)
Assay type: physicochemical
Settings: Method 1
Experimental: Assay (I): Determination of Solubility
96-Well Plate Preparation
96-well plates containing target peptide in a solid form were prepared in one of two ways:
Method 1 (evaporation): Addition of 100 μl stock solution of said peptide at a concentration of 4-6 mg/ml to each well of a 96-well half area plate (150 μl well size). Subsequently the solvent was evaporated by applying a vacuum until the solvent was completely removed.
Method 2 (precipitation): Addition of a certain volume of a stock solution of said peptide containing to each well of a 96-well half area plate followed by the addition of a certain volume of concentrated phosphoric acid to obtain a pH of 4.6 followed by addition of a certain volume of ethanol resulting in a final ethanol concentration of 20% v/v. Subsequently the plate was stored at 4° C. for 1 h and then centrifuged at 4,000 rpm for 20 min. Finally the supernatant was removed. The concentration of the stock solution was chosen in a way that the final amount of peptide after supernatant removal was >0.4 mg per well.
In both cases the stock solution was prepared by adding de-ionized water to a certain amount of powder of said peptide followed by a stepwise addition of small amounts of a concentrated sodium hydroxide solution until said peptide was completely in solution.
To determine solubility of a target peptide at different pH and organic solvent concentrations, two different buffer systems were used in independent experiments to cover the whole range from pH 3.0 to pH 11.0. Buffer system 1 covers pH 3.0-7.5 and buffer system 2 covers pH 7.5-11.0. For each buffer system 96 different solvent compositions were premixed in the following way: • 1. A low pH buffer (adjusted to either pH 3.0 or pH 7.5) and a high pH buffer (adjusted to either pH 7.5 or pH 11.0) were mixed at 8 different ratios to obtain values between pH 3.0 and pH 7.5 or pH 7.5 and pH 11.0, respectively. The total volume after mixing was 300 μl. • 2. 12 different amounts of organic solvent were then added to these buffers to obtain organic solvent (e.g. ethanol) concentrations between 0 and 70% w/w. • 3. Water was then added to obtain a total weight of 1.0 g of solvent in each well.
After preparing the 96 different solvent systems, 100 μl of each system was transferred to the 96-well plate containing the solid form of the target peptide (prepared as described in the section “96-well plate preparation”). The plate was then stored at a given temperature (between 5° C. and 70° C.) for a given time on a rotating shaker set to 400 rpm. At regular time intervals the plate was centrifuged (4,000 rpm for 10 min) and a 10 μl sample was taken from each well. The samples were then analysed by UV absorption at 280 nm for peptide quantification. Peptide concentration results are given as UV absorption at 280 nm of the sample subtracted UV absorption at 280 nm of a well comprising 10 μl water.
The buffers used were as follows: • Buffer system 1 (for the pH range from pH 3.0-7.5)
• Buffer system 2 (for the pH ranae from pH 7.5-11.0)
Solubility of liraglutide was determined using Assay (I) described herein. Liraglutide was prepared using Method 1 (evaporation) or Method 2 (precipitation) as described in subsection “96-well plate preparation”.

- Peptide concentration after 180 min (MeCN 6.4% w/w, pH 3.6, 5° C.): 0.1 mg/mL
- Peptide concentration after 24 h (MeCN 6.4% w/w, pH 3.6, 5° C.): 0.2 mg/mL
- Peptide concentration after 24 h (MeCN 6.4% w/w, pH 3.6, RT): 0.1 mg/mL
- Peptide concentration after 5 min (MeCN 6.4% w/w, pH 4.3, 5° C.): 0.1 mg/mL
- Peptide concentration after 180 min (MeCN 6.4% w/w, pH 4.3, 5° C.): 0.1 mg/mL
- Peptide concentration after 24 h (MeCN 6.4% w/w, pH 4.3, 5° C.): 0.2 mg/mL
- Peptide concentration after 5 min (MeCN 6.4% w/w, pH 8.0, 5° C.): 0.8 mg/mL
- Peptide concentration after 180 min (MeCN 6.4% w/w, pH 8.0, 5° C.): 2.2 mg/mL
- Peptide concentration after 24 h (MeCN 6.4% w/w, pH 8.0, 5° C.): >4.0 mg/mL
- Peptide concentration after 5 min (MeCN 6.4% w/w, pH 8.5, 5° C.): 0.8 mg/mL
- Peptide concentration after 180 min (MeCN 6.4% w/w, pH 8.5, 5° C.): 2.6 mg/mL
- Peptide concentration after 24 h (MeCN 6.4% w/w, pH 8.5, 5° C.): >4.0 mg/mL
- Peptide concentration after 5 min (MeCN 6.4% w/w, pH 9.0, 5° C.): 1.0 mg/mL
- Peptide concentration after 180 min (MeCN 6.4% w/w, pH 9.0, 5° C.): 2.9 mg/mL
- Peptide concentration after 24 h (MeCN 6.4% w/w, pH 9.0, 5° C.): >4.0 mg/mL
- Peptide concentration after 5 min (MeCN 6.4% w/w, pH 9.5, 5° C.): 0.6 mg/mL
- Peptide concentration after 180 min (MeCN 6.4% w/w, pH 9.5, 5° C.): 2.5 mg/mL
- Peptide concentration after 24 h (MeCN 6.4% w/w, pH 9.5, 5° C.): >4.0 mg/mL
- Peptide concentration after 5 min (MeCN 6.4% w/w, pH 10.0, 5° C.): 1.0 mg/mL
- Peptide concentration after 180 min (MeCN 6.4% w/w, pH 10.0, 5° C.): 3.1 mg/mL
- Peptide concentration after 24 h (MeCN 6.4% w/w, pH 10.0, 5° C.): >4.0 mg/mL
- Peptide concentration after 5 min (MeCN 6.4% w/w, pH 10.5, 5° C.): 0.7 mg/mL
- Peptide concentration after 180 min (MeCN 6.4% w/w, pH 10.5, 5° C.): 2.6 mg/mL
- Peptide concentration after 24 h (MeCN 6.4% w/w, pH 10.5, 5° C.): >4.0 mg/mL
- Peptide concentration after 5 min (MeCN 6.4% w/w, pH 11.0, 5° C.): 0.7 mg/mL
- Peptide concentration after 180 min (MeCN 6.4% w/w, pH 11.0, 5° C.): 1.7 mg/mL
- Peptide concentration after 24 h (MeCN 6.4% w/w, pH 11.0, 5° C.): >4.0 mg/mL
- Peptide concentration after 5 min (MeCN 12.7% w/w, pH 8.0, 5° C.): 1.3 mg/mL
- Peptide concentration after 180 min (MeCN 12.7% w/w, pH 8.0, 5° C.): 2.2 mg/mL
- Peptide concentration after 24 h (MeCN 12.7% w/w, pH 8.0, 5° C.): >4.0 mg/mL
- Peptide concentration after 5 min (MeCN 12.7% w/w, pH 8.5, 5° C.): 0.8 mg/mL
- Peptide concentration after 180 min (MeCN 12.7% w/w, pH 8.5, 5° C.): 2.1 mg/mL
- Peptide concentration after 24 h (MeCN 12.7% w/w, pH 8.5, 5° C.): >4.0 mg/mL
- Peptide concentration after 5 min (MeCN 12.7% w/w, pH 9.0, 5° C.): 0.8 mg/mL
- Peptide concentration after 180 min (MeCN 12.7% w/w, pH 9.0, 5° C.): 1.8 mg/mL
- Peptide concentration after 24 h (MeCN 12.7% w/w, pH 9.0, 5° C.): >4.0 mg/mL
- Peptide concentration after 5 min (MeCN 12.7% w/w, pH 9.5, 5° C.): 0.9 mg/mL
- Peptide concentration after 180 min (MeCN 12.7% w/w, pH 9.5, 5° C.): 1.9 mg/mL
- Peptide concentration after 24 h (MeCN 12.7% w/w, pH 9.5, 5° C.): >4.0 mg/mL
- Peptide concentration after 5 min (MeCN 12.7% w/w, pH 10.0, 5° C.): 0.8 mg/mL
- Peptide concentration after 180 min (MeCN 12.7% w/w, pH 10.0, 5° C.): 2.3 mg/mL
- Peptide concentration after 24 h (MeCN 12.7% w/w, pH 10.0, 5° C.): >4.0 mg/mL
- Peptide concentration after 5 min (MeCN 12.7% w/w, pH 10.5, 5° C.): 1.1 mg/mL
- Peptide concentration after 180 min (MeCN 12.7% w/w, pH 10.5, 5° C.): 2.1 mg/mL
- Peptide concentration after 24 h (MeCN 12.7% w/w, pH 10.5, 5° C.): >4.0 mg/mL
- Peptide concentration after 5 min (MeCN 12.7% w/w, pH 11.0, 5° C.): 0.6 mg/mL
- Peptide concentration after 180 min (MeCN 12.7% w/w, pH 11.0, 5° C.): 1.5 mg/mL
- Peptide concentration after 24 h (MeCN 12.7% w/w, pH 11.0, 5° C.): >4.0 mg/mL
- Peptide concentration after 5 min (MeCN 19.1% w/w, pH 8.0, 5° C.): 1.0 mg/mL
- Peptide concentration after 180 min (MeCN 19.1% w/w, pH 8.0, 5° C.): 2.7 mg/mL
- Peptide concentration after 24 h (MeCN 19.1% w/w, pH 8.0, 5° C.): >4.0 mg/mL
Compound: CCCCCCCCCCCCCCCC(=O)N[C@@H](CCC(=O)NCCCC[C@H](NC(=O)[C@H](C)NC(=O)[C@H](C)NC(=O)[C@H](CCC(N)=O)NC(=O)CNC(=O)[C@H](CCC(=O)O)NC(=O)[C@H](CC(C)C)NC(=O)[C@H](Cc1ccc(O)cc1)NC(=O)[C@H](CO)NC(=O)[C@H](CO)NC(=O)[C@@H](NC(=O)[C@H](CC(=O)O)NC(=O)[C@H](CO)NC(=O)[C@@H](NC(=O)[C@H](Cc1ccccc1)NC(=O)[C@@H](NC(=O)CNC(=O)[C@H](CCC(=O)O)NC(=O)[C@H](C)NC(=O)[C@@H](N)Cc1cnc[nH]1)[C@@H](C)O)[C@@H](C)O)C(C)C)C(=O)N[C@@H](CCC(=O)O)C(=O)N[C@@H](Cc1ccccc1)C(=O)N[C@H](C(=O)N[C@@H](C)C(=O)N[C@@H](Cc1c[nH]c2ccccc12)C(=O)N[C@@H](CC(C)C)C(=O)N[C@H](C(=O)N[C@@H](CCCNC(=N)N)C(=O)NCC(=O)N[C@@H](CCCNC(=N)N)C(=O)NCC(=O)O)C(C)C)[C@@H](C)CC)C(=O)O [liraglutide, Arg34,Lys26-(N-epsilon-(gamma-L-glutamyl(N-alfa-hexadecanoyl)))-GLP-1(7-37)]
